{
  "source": "ChEMBL document CHEMBL1143875",
  "about": "“Synthesis and structure-activity relationships of thiadiazole-derivatives as potent and orally active peroxisome proliferator-activated receptors alpha/delta dual agonists” (Bioorg Med Chem, 2008)",
  "key": {"[1]": {"experiment": "AUC in Beagle dog at 10 mg/kg administered as single dose on day 7", "type": "ADME, organism-based, Canis lupus familiaris", "design": "dose 10 mg/kg", "conditions": "plasma"}, "[2]": {"experiment": "Half life in ob/ob C57BL/6J-leptin deficient obese mouse at 3 mg/kg administered as single dose on day 11", "type": "ADME, organism-based", "design": "dose 3 mg/kg", "conditions": "in vivo"}, "[3]": {"test_system": "Mus musculus", "experiment": "[…] effect of ob/ob C57BL/6J-leptin deficient obese mouse assessed as reduction in serum insulin level at 0.1 to 3 mg/kg, po after 11 days", "type": "functional", "design": "scale not given: the % may be the effect or the level left", "conditions": "dose mg/kg 0.1-3"}, "[4]": {"experiment": "Cmax in ob/ob C57BL/6J-leptin deficient obese mouse at 0.3 mg/kg administered as multiple dose after 11 days", "type": "ADME, organism-based", "design": "dose 0.3 mg/kg", "conditions": "in vivo"}, "[5]": {"experiment": "Induction of CPT1 gene expression in human skeletal muscle cells at 1000 nM by RT-PCR", "type": "functional"}, "[6]": {"experiment": "Cmax in Sprague-Dawley rat at 1 mg/kg administered as multiple dose after 8 days", "type": "ADME, organism-based", "design": "dose 1 mg/kg", "conditions": "in vivo"}, "[7]": {"experiment": "Cmax in Beagle dog at 3 mg/kg administered as multiple dose after 7 days", "type": "ADME, organism-based, Canis lupus familiaris", "design": "dose 3 mg/kg", "conditions": "in vivo"}, "[8]": {"experiment": "Half life in Beagle dog at 10 mg/kg administered as single dose on day 7", "type": "ADME, organism-based, Canis lupus familiaris", "design": "dose 10 mg/kg", "conditions": "in vivo"}, "[9]": {"experiment": "Induction of CPT1 gene expression in human skeletal muscle cells at 1 nM by RT-PCR", "type": "functional"}, "[10]": {"test_system": "Rattus norvegicus", "experiment": "Decrease in total cholesterol level in hypercholesterolemic Sprague-Dawley rat serum at 0.1 to 1 mg/kg, po after 8 days", "type": "functional", "conditions": "dose mg/kg 0.1-1"}, "[11]": {"experiment": "Cmax in ob/ob C57BL/6J-leptin deficient obese mouse at 1 mg/kg administered as multiple dose after 11 days", "type": "ADME, organism-based", "design": "dose 1 mg/kg", "conditions": "in vivo"}, "[12]": {"experiment": "Induction of ABCA1 gene expression in human skeletal muscle cells at 1 nM by RT-PCR", "type": "functional"}, "[13]": {"experiment": "AUC in ob/ob C57BL/6J-leptin deficient obese mouse at 0.3 mg/kg administered as multiple dose after 11 days", "type": "ADME, organism-based", "design": "dose 0.3 mg/kg", "conditions": "plasma"}, "[14]": {"experiment": "Activity at liver X receptor"}, "[15]": {"biological_target": "T1, Glucocorticoid receptor (Homo sapiens) (UniProt P04150)", "T1 sequence (whole entry)": "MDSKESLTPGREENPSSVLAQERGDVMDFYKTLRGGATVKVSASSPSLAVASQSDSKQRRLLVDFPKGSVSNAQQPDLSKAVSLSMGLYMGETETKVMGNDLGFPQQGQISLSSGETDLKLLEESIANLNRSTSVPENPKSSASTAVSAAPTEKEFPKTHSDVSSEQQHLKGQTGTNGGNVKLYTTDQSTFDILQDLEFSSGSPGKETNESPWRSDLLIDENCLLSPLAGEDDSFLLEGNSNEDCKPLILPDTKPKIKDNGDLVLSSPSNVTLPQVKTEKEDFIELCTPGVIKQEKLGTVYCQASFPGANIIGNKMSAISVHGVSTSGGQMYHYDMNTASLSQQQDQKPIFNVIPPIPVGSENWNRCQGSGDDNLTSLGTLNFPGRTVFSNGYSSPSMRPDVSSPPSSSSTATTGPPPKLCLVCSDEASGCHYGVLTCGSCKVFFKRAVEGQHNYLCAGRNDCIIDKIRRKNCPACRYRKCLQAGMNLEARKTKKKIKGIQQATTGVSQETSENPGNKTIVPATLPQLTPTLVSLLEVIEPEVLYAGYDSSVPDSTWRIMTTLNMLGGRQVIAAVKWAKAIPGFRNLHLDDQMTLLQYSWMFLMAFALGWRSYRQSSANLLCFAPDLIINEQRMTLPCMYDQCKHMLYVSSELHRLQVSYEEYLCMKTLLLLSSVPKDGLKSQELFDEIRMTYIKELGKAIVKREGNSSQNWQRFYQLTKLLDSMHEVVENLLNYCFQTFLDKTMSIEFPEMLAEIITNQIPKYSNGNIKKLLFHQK", "experiment": "Activity at glucocorticoid receptor"}, "[16]": {"test_system": "Rattus norvegicus", "experiment": "Increase in HDL cholesterol level in po dosed hypercholesterolemic Sprague-Dawley rat serum after 8 days", "type": "functional"}, "[17]": {"experiment": "Cmax in Sprague-Dawley rat at 0.1 mg/kg administered as multiple dose after 8 days", "type": "ADME, organism-based", "design": "dose 0.1 mg/kg", "conditions": "in vivo"}, "[18]": {"experiment": "Activity at retinoic acid X receptor"}, "[19]": {"experiment": "Half life in ob/ob C57BL/6J-leptin deficient obese mouse at 1 mg/kg administered as multiple dose after 11 days", "type": "ADME, organism-based", "design": "dose 1 mg/kg", "conditions": "in vivo"}, "[20]": {"experiment": "Cmax in Beagle dog at 0.3 mg/kg administered as multiple dose after 7 days", "type": "ADME, organism-based, Canis lupus familiaris", "design": "dose 0.3 mg/kg", "conditions": "in vivo"}, "[21]": {"test_system": "Mus musculus", "experiment": "[…] effect of ob/ob C57BL/6J-leptin deficient obese mouse assessed as reduction in triglyceride level at 0.1 to 3 mg/kg, po after 11 days", "type": "functional", "design": "scale not given: the % may be the effect or the level left", "conditions": "dose mg/kg 0.1-3"}, "[22]": {"biological_target": "T2, Peroxisome proliferator-activated receptor alpha (Homo sapiens) (UniProt Q07869)", "T2 sequence (whole entry)": "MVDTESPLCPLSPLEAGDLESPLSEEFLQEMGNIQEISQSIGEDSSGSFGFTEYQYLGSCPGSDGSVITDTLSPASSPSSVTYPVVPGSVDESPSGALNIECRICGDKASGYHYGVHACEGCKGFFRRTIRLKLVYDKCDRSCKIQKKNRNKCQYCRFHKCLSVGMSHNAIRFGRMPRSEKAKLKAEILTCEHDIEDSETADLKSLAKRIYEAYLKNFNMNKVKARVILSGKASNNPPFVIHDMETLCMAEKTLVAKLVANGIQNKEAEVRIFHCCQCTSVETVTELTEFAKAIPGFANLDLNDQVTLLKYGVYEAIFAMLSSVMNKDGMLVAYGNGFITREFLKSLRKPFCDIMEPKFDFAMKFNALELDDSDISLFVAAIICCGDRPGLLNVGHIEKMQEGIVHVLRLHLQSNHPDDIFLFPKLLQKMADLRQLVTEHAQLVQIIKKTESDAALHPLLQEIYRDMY", "experiment": "Agonist activity at human PPARalpha-Gal4 in HEK293 cells by luciferase reporter assay relative to (S)-2-{2-[1-ethyl-3-(4-trifluoro-methoxyphenyl)ureido]indan-5-ylsulfanyl}-2-methylpropionic acid", "type": "functional, cell-based"}, "[23]": {"experiment": "Half life in Beagle dog at 0.3 mg/kg administered as multiple dose after 7 days", "type": "ADME, organism-based, Canis lupus familiaris", "design": "dose 0.3 mg/kg", "conditions": "in vivo"}, "[24]": {"experiment": "Cmax in Sprague-Dawley rat at 3 mg/kg administered as multiple dose after 8 days", "type": "ADME, organism-based", "design": "dose 3 mg/kg", "conditions": "in vivo"}, "[25]": {"test_system": "Mus musculus", "experiment": "Increase in hApoA1 level in po dosed hApoA1 transgenic mouse after 7 days", "type": "functional, organism-based"}, "[26]": {"test_system": "Canis familiaris", "experiment": "Increase in aspartate aminotransferase level in Beagle dog serum at 10 mg/kg, po/day after 7 days", "type": "functional, Canis lupus familiaris"}, "[27]": {"experiment": "Half life in Sprague-Dawley rat at 1 mg/kg administered as multiple dose after 8 days", "type": "ADME, organism-based", "design": "dose 1 mg/kg", "conditions": "in vivo"}, "[28]": {"experiment": "AUC in Beagle dog at 10 mg/kg administered as multiple dose after 7 days", "type": "ADME, organism-based, Canis lupus familiaris", "design": "dose 10 mg/kg", "conditions": "plasma"}, "[29]": {"experiment": "AUC in Sprague-Dawley rat at 0.1 mg/kg administered as multiple dose after 8 days", "type": "ADME, organism-based", "design": "dose 0.1 mg/kg", "conditions": "plasma"}},
  "note": "Calls of active or inactive are those of the source. The rule behind the calls is not given here.",
  "data": [
    {"molecule": "Cc1cc(SCc2nc(-c3ccc(Cl)c(Cl)c3)ns2)ccc1OC(C)(C)C(=O)O", "values": [
      {"measurement": "AUC", "setting": "[1]", "result": 57200, "unit": "ng·h/mL"},
      {"measurement": "half-life", "setting": "[2]", "result": 5.1, "unit": "h"},
      {"measurement": "Activity", "setting": "[3]", "result": 50, "unit": "%"},
      {"measurement": "Cmax", "setting": "[4]", "result": 1840, "unit": "ng/mL"},
      {"measurement": "Fold change", "setting": "[5]", "result": 7.8},
      {"measurement": "Cmax", "setting": "[6]", "result": 1360, "unit": "ng/mL"},
      {"measurement": "Cmax", "setting": "[7]", "result": 6710, "unit": "ng/mL"},
      {"measurement": "half-life", "setting": "[8]", "result": 5.8, "unit": "h"},
      {"measurement": "Fold change", "setting": "[9]", "result": 3},
      {"measurement": "Activity", "setting": "[10]", "result": 263, "unit": "mg/dL"},
      {"measurement": "Cmax", "setting": "[11]", "result": 6830, "unit": "ng/mL"},
      {"measurement": "Fold change", "setting": "[12]", "result": 1.5},
      {"measurement": "AUC at 264 h", "setting": "[13]", "result": 10600, "unit": "ng·h/mL"},
      {"measurement": "Activity", "setting": "[14]", "result": "inactive"},
      {"measurement": "Activity", "setting": "[15]", "result": "inactive"},
      {"measurement": "Activity", "setting": "[16]", "result": 45, "unit": "mg/dL"},
      {"measurement": "Cmax", "setting": "[17]", "result": 82, "unit": "ng/mL"},
      {"measurement": "Activity", "setting": "[18]", "result": "inactive"},
      {"measurement": "half-life", "setting": "[19]", "result": 5.2, "unit": "h"},
      {"measurement": "Cmax", "setting": "[20]", "result": 398, "unit": "ng/mL"},
      {"measurement": "Activity", "setting": "[21]", "result": 83, "unit": "%"},
      {"measurement": "Efficacy", "setting": "[22]", "result": 56, "unit": "%"},
      {"measurement": "half-life", "setting": "[23]", "result": 6.5, "unit": "h"},
      {"measurement": "Cmax", "setting": "[24]", "result": 2000, "unit": "ng/mL"},
      {"measurement": "Activity", "setting": "[25]", "result": "Dose-dependent effect"},
      {"measurement": "Fold change", "setting": "[26]", "result": 1.7},
      {"measurement": "half-life", "setting": "[27]", "result": 5.7, "unit": "h"},
      {"measurement": "AUC at 168 h", "setting": "[28]", "result": 61600, "unit": "ng·h/mL"},
      {"measurement": "AUC at 192 h", "setting": "[29]", "result": 738, "unit": "ng·h/mL"}
    ]}
  ]
}
